Measurements from PubChem BioAssay AID2060897 (Molecular Pharmacology Branch, DTP, NCI, 2025).

Test system: 966289-007-R4-J1-PDC complex spheroid viability
Experiment: Anticancer human tumor 966289-007-R4-J1-PDC patient-derived pancreatic adenocarcinoma cell line growth inhibition [RAS]
Conditions: for IC50: curve of first compound; for viability, T/C: stronger effect = lower value
How it was run: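 Multi-cell-type spheroids: tumor cells plus HUVEC endothelial cells and mesenchymal stem cells. RAS-pathway inhibitors were combined with targeted agents, each dosed in half-log steps down from clinical Cmax, or from 10 microM when Cmax was unknown.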
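Note: spheroids exposed to agents for one week before readout.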
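Throughout, for viability, T/C: percent viability relative to DMSO vehicle control wells as 100%.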

**Q.** For C[C@@H](NC(=O)c1ncnc(N)c1Cl)c1ncc(C(=O)Nc2cc(C(F)(F)F)c(Cl)cn2)s1 + CCn1c(-c2cc(N3CCN(C)CC3)cnc2C(C)OC)c2c3cc(ccc31)-c1csc(n1)CC(NC(=O)C1CC1C)C(=O)N1CCCC(N1)C(=O)OCC(C)(C)C2, which IC50 (second compound 0.000949 µM) is on record?
**A.** > 10 µM

**Q.** And the IC50 (second compound 0.003 µM)?
**A.** > 10 µM

**Q.** And the IC50 (second compound 0.00949 µM)?
**A.** > 10 µM

**Q.** And the IC50 (second compound 0.03 µM)?
**A.** > 10 µM

**Q.** What about the IC50 (second compound 0.0949 µM) of the same molecule?
**A.** > 10 µM

**Q.** What about the IC50 (second compound 0.3 µM) of the same molecule?
**A.** > 10 µM

**Q.** What about the viability, T/C (second compound 0.000949 µM, first compound 0.0316 µM) of the same molecule?
**A.** 125%

**Q.** And the viability, T/C (second compound 0.000949 µM, first compound 0.1 µM)?
**A.** 120%

**Q.** What about the viability, T/C (second compound 0.000949 µM, first compound 0.316 µM) of the same molecule?
**A.** 91.1%

**Q.** What about the viability, T/C (second compound 0.000949 µM, first compound 1 µM) of the same molecule?
**A.** 73%

**Q.** What about the viability, T/C (second compound 0.000949 µM, first compound 3.16 µM) of the same molecule?
**A.** 73.8%

**Q.** What about the viability, T/C (second compound 0.000949 µM, first compound 10 µM) of the same molecule?
**A.** 103%

**Q.** And the viability, T/C (second compound 0.003 µM, first compound 0.0316 µM)?
**A.** 94.6%

**Q.** And the viability, T/C (second compound 0.003 µM, first compound 0.1 µM)?
**A.** 113%

**Q.** And the viability, T/C (second compound 0.003 µM, first compound 0.316 µM)?
**A.** 102%

**Q.** What about the viability, T/C (second compound 0.003 µM, first compound 1 µM) of the same molecule?
**A.** 85.1%

**Q.** And the viability, T/C (second compound 0.003 µM, first compound 3.16 µM)?
**A.** 97%

**Q.** And the viability, T/C (second compound 0.003 µM, first compound 10 µM)?
**A.** 84.2%

**Q.** What about the viability, T/C (second compound 0.00949 µM, first compound 0.0316 µM) of the same molecule?
**A.** 97.3%

**Q.** What about the viability, T/C (second compound 0.00949 µM, first compound 0.1 µM) of the same molecule?
**A.** 116%

**Q.** And the viability, T/C (second compound 0.00949 µM, first compound 0.316 µM)?
**A.** 95.3%

**Q.** And the viability, T/C (second compound 0.00949 µM, first compound 1 µM)?
**A.** 69%

**Q.** What about the viability, T/C (second compound 0.00949 µM, first compound 3.16 µM) of the same molecule?
**A.** 103%

**Q.** What about the viability, T/C (second compound 0.00949 µM, first compound 10 µM) of the same molecule?
**A.** 110%

**Q.** What about the viability, T/C (second compound 0.03 µM, first compound 0.0316 µM) of the same molecule?
**A.** 79.2%

**Q.** What about the viability, T/C (second compound 0.03 µM, first compound 0.1 µM) of the same molecule?
**A.** 77.2%

**Q.** And the viability, T/C (second compound 0.03 µM, first compound 0.316 µM)?
**A.** 118%

**Q.** And the viability, T/C (second compound 0.03 µM, first compound 1 µM)?
**A.** 123%

**Q.** And the viability, T/C (second compound 0.03 µM, first compound 3.16 µM)?
**A.** 117%

**Q.** And the viability, T/C (second compound 0.03 µM, first compound 10 µM)?
**A.** 82%

**Q.** And the viability, T/C (second compound 0.0949 µM, first compound 0.0316 µM)?
**A.** 76.6%

**Q.** And the viability, T/C (second compound 0.0949 µM, first compound 0.1 µM)?
**A.** 88.3%

**Q.** What about the viability, T/C (second compound 0.0949 µM, first compound 0.316 µM) of the same molecule?
**A.** 119%

**Q.** What about the viability, T/C (second compound 0.0949 µM, first compound 1 µM) of the same molecule?
**A.** 105%

**Q.** And the viability, T/C (second compound 0.0949 µM, first compound 3.16 µM)?
**A.** 111%

**Q.** And the viability, T/C (second compound 0.0949 µM, first compound 10 µM)?
**A.** 150%

**Q.** What about the viability, T/C (second compound 0.3 µM, first compound 0.0316 µM) of the same molecule?
**A.** 60.5%

**Q.** And the viability, T/C (second compound 0.3 µM, first compound 0.1 µM)?
**A.** 101%

**Q.** And the viability, T/C (second compound 0.3 µM, first compound 0.316 µM)?
**A.** 130%

**Q.** And the viability, T/C (second compound 0.3 µM, first compound 1 µM)?
**A.** 141%

**Q.** And the viability, T/C (second compound 0.3 µM, first compound 3.16 µM)?
**A.** 116%

**Q.** What about the viability, T/C (second compound 0.3 µM, first compound 10 µM) of the same molecule?
**A.** 107%
